Patent US20200163984A1, “USE OF ISOVALERYL SPIRAMYCIN I, II AND/OR III IN MANUFACTURING MEDICAMENT FOR TREATING AND/OR PREVENTING TUMOR, AND MEDICAMENT” (SHENYANG FUYANG PHARMACEUTICAL TECHNOLOGY CO., LTD., priority 2017, published 2020)
Like-named read-outs stand apart in the source and are kept apart here.

Tests used:
[1] = test system: transplanted tumor of human non-small cell lung cancer cell H1299
Protocol: (§1) Then cell concentration was adjusted to 1×10^7/ml with matrigel, then each nude mouse was inoculated subcutaneously with 0.2 ml of cells at its right armpit and recorded as the first day of inoculation. When the tumor grows to be greater than or equal to 100 mm^3, the mice were randomly divided into 11 groups with 6 mice in each group: isovaleryl spiramycin I groups with doses of 25, 50 and 100 mg/kg, isovaleryl spiramycin II groups with doses of 25, 50 and 100 mg/kg, and isovaleryl spiramycin III groups with doses of 25, 50 and 100 mg/kg. Each group was continuously administered intragastrically for 30 days with a dose of 20 ml/kg. The mice were sacrificed the next day after drug withdrawal and the indicators were tested. The long diameter and short diameter of the tumor, and the body weight of each mouse were recorded every 3 days from drug administration to nude mouse sacrifice.
(§2) The body weight of the nude mice and the long diameter (a) and short diameter (b) of the transplanted tumor were measured every 3 days, and the tumor volume (v), relative tumor volume (RTV) and relative tumor proliferation rate (T/C) are calculated respectively according to the following formulas, wherein V=a×b^2/2; RTV=V/V0 (V0 is the tumor volume before administration, V is the tumor volume before sacrifice), and T/C (%)=treatment group RTV/model control group RTV×100%.
(§3) Each mouse was weighed and sacrificed. After the tumor was completely stripped off from the body of the mouse, the non-tumor tissues such as blood stains and fat were removed to weigh the tumor and calculate the tumor growth inhibition rate. The average tumor weight of each group of mice is used as an indicator of efficacy. Tumor growth inhibition rate (%)=(1−the average tumor weight of the treatment group/the average tumor weight of the model group)×100%.

[2] = test system: transplanted tumor of human pancreatic cancer cell PANC-1; experiment: PANC-1 transplanted tumor in nude mice; conditions: for Tumor Volume (mm3) (d 1): d1
Protocol: as §1, with “group: a model group, a cyclophosphamide group,” for “group:”
as §2, §3

[3] = test system: transplanted tumor of human renal clear cell adenocarcinoma cell 786-O; experiment: 786-O transplanted tumor in nude mice; conditions: for Tumor Volume (mm3) (d 1): d1
Protocol: as §1, with “786-O cells in a logarithmic growth phase were taken and subjected to a trypan blue exclusion experiment showing that the cell viability was more than 95%, then the cells were subjected to trypsinization, centrifugation, and supernatant removal. Then” for “Then”, “group: a model group, a cyclophosphamide group,” for “group:”
as §2, §3

[4] = H1299, 25 mg/kg (low dose) i.g. 30 days
[5] = H1299, 50 mg/kg (medium dose) i.g. 30 days
[6] = H1299, 100 mg/kg (high dose) i.g. 30 days
[7] = PANC-1, 12.5 mg/kg (low dose) i.g. 30 days
[8] = PANC-1, 25 mg/kg (medium dose) i.g. 30 days
[9] = PANC-1, 50 mg/kg (high dose) i.g. 30 days
[10] = 786-O, high dose (100 mg/kg in method) i.g. 30 days
[11] = 786-O, low dose (25 mg/kg in method) i.g. 30 days
[12] = 786-O, medium dose (50 mg/kg in method) i.g. 30 days

With CO[C@@H]1[C@@H](O[C@@H]2O[C@H](C)[C@@H](O[C@H]3C[C@@](C)(O)[C@@H](OC(=O)CC(C)C)[C@H](C)O3)[C@H](N(C)C)[C@H]2O)[C@@H](CC=O)C[C@@H](C)[C@@H](O[C@H]2CC[C@H](N(C)C)[C@@H](C)O2)/C=C/C=C/C[C@@H](C)OC(=O)C[C@H]1O [Isovaleryl spiramycin I, isovaleryl spiramycin I] the “Inhibition Rate (tumor growth inhibition rate)” value [1, 4] was 22.11%, the “Relative Tumor Proliferation Rate (T/C)” value [1, 4] was 89.42% and the “Relative Tumor Volume (RTV)” value [1, 4] was 11.46 ± 3.83. The “Tumor Volume (d 1)” value [1, 4] was 136.07 ± 17.13 mm3, the “Tumor Volume (d 30)” value [1, 4] was 1513.14 ± 387.19 mm3 and the “Tumor Weight” value [1, 4] was 1.36 ± 0.33 g. For the same compound, the “Inhibition Rate (tumor growth inhibition rate)” value [1, 5] was 43.83%, the “Relative Tumor Proliferation Rate (T/C)” value [1, 5] was 49.81% and the “Relative Tumor Volume (RTV)” value [1, 5] was 6.39 ± 1.01. For the same compound, the “Tumor Volume (d 1)” value [1, 5] was 135.51 ± 20.47 mm3, the “Tumor Volume (d 30)” value [1, 5] was 861.71 ± 164.32 mm3 and the “Tumor Weight” value [1, 5] was 0.98 ± 0.27 g. For the same compound, the “Inhibition Rate (tumor growth inhibition rate)” value [1, 6] was 69.95%, the “Relative Tumor Proliferation Rate (T/C)” value [1, 6] was 27.43% and the “Relative Tumor Volume (RTV)” value [1, 6] was 3.52 ± 0.68. The “Tumor Volume (d 1)” value [1, 6] was 137.34 ± 22.95 mm3, the “Tumor Volume (d 30)” value [1, 6] was 470.36 ± 21.77 mm3 and the “Tumor Weight” value [1, 6] was 0.52 ± 0.21 g. The “tumor volume and relative tumor volume compared with the model group” value (shortened to “tumor volume and relative tumor volume”) ([1]; H1299, low, medium and high doses, P<0.05) was “significantly lower”, the “mouse weight compared with the model group” value ([1]; mouse, in vivo) was “no significant changes” and the “Inhibition Rate (tumor growth inhibition rate)” value [2, 7] was 31.10%. The “Tumor Weight” value [2, 7] was 1.87 ± 0.25 g, the “Inhibition Rate (tumor growth inhibition rate)” value [2, 8] was 51.72% and the “Tumor Weight” value [2, 8] was 1.31 ± 0.50 g. The “Inhibition Rate (tumor growth inhibition rate)” value [2, 9] was 70.12%, the “Tumor Weight” value [2, 9] was 0.81 ± 0.08 g and the “Relative Tumor Proliferation Rate (T/C)” value ([2]; PANC-1, high dose i.g. 30 days) was 30.80%. The “Relative Tumor Proliferation Rate (T/C)” value ([2]; PANC-1, low dose i.g. 30 days) was 71.92%, the “tumor volume and relative tumor volume” value ([2]; PANC-1, low, medium and high doses, P<0.05) was “significantly lower” and the “Relative Tumor Proliferation Rate (T/C)” value ([2]; PANC-1, medium dose i.g. 30 days) was 49.05%. The “Relative Tumor Proliferation Rate (T/C)” value ([2]; PANC-1 nude mice, 12.5 mg/kg) was 71.92%, the “Relative Tumor Volume (RTV)” value ([2]; PANC-1 nude mice, 12.5 mg/kg) was 12.59 ± 7.49 and the “Tumor Volume (mm3) (d 1)” value ([2]; PANC-1 nude mice, 12.5 mg/kg) was 139.97 ± 26.58 mm3. The “Tumor Volume (mm3) (d30)” value ([2]; PANC-1 nude mice, 12.5 mg/kg) was 1634.85 ± 789.61 mm3, the “Relative Tumor Proliferation Rate (T/C)” value ([2]; PANC-1 nude mice, 25 mg/kg) was 49.05% and the “Relative Tumor Volume (RTV)” value ([2]; PANC-1 nude mice, 25 mg/kg) was 8.58 ± 4.41. For the same compound, the “Tumor Volume (mm3) (d 1)” value ([2]; PANC-1 nude mice, 25 mg/kg) was 146.57 ± 32.97 mm3, the “Tumor Volume (mm3) (d30)” value ([2]; PANC-1 nude mice, 25 mg/kg) was 1162.80 ± 394.71 mm3 and the “Relative Tumor Proliferation Rate (T/C)” value ([2]; PANC-1 nude mice, 50 mg/kg) was 30.80%. The “Relative Tumor Volume (RTV)” value ([2]; PANC-1 nude mice, 50 mg/kg) was 5.39 ± 0.97, the “Tumor Volume (mm3) (d 1)” value ([2]; PANC-1 nude mice, 50 mg/kg) was 124.02 ± 15.14 mm3 and the “Tumor Volume (mm3) (d30)” value ([2]; PANC-1 nude mice, 50 mg/kg) was 656.95 ± 49.58 mm3. For the same compound, the “mouse weight compared with the model group” value ([2]; mouse, in vivo) was “no significant changes”, the “Inhibition Rate (%)” value ([3]; 786-O nude mice, 25 mg/kg) was 34.70% and the “Relative Tumor Proliferation Rate (T/C)” value ([3]; 786-O nude mice, 25 mg/kg) was 37.88%. The “Relative Tumor Volume (RTV)” value ([3]; 786-O nude mice, 25 mg/kg) was 6.99 ± 0.83, the “Tumor Weight” value ([3]; 786-O nude mice, 25 mg/kg) was 1.40 ± 0.40 g and the “Tumor Volume (mm3) (d 1)” value ([3]; 786-O nude mice, 25 mg/kg) was 96.85 ± 9.98 mm3. The “Tumor Volume (mm3) (d30)” value ([3]; 786-O nude mice, 25 mg/kg) was 677.21 ± 58.76 mm3, the “Inhibition Rate (%)” value ([3]; 786-O nude mice, 50 mg/kg) was 39.22% and the “Relative Tumor Proliferation Rate (T/C)” value ([3]; 786-O nude mice, 50 mg/kg) was 37.19%. The “Relative Tumor Volume (RTV)” value ([3]; 786-O nude mice, 50 mg/kg) was 6.86 ± 1.01, the “Tumor Weight” value ([3]; 786-O nude mice, 50 mg/kg) was 1.31 ± 0.35 g and the “Tumor Volume (mm3) (d 1)” value ([3]; 786-O nude mice, 50 mg/kg) was 96.82 ± 8.52 mm3. The “Tumor Volume (mm3) (d30)” value ([3]; 786-O nude mice, 50 mg/kg) was 664.44 ± 73.49 mm3, the “Inhibition Rate (%)” value ([3]; 786-O nude mice, 100 mg/kg) was 64.36% and the “Relative Tumor Proliferation Rate (T/C)” value ([3]; 786-O nude mice, 100 mg/kg) was 36.87%. For the same compound, the “Relative Tumor Volume (RTV)” value ([3]; 786-O nude mice, 100 mg/kg) was 6.81 ± 0.31, the “Tumor Weight” value ([3]; 786-O nude mice, 100 mg/kg) was 0.76 ± 0.13 g and the “Tumor Volume (mm3) (d 1)” value ([3]; 786-O nude mice, 100 mg/kg) was 103.25 ± 9.71 mm3. For the same compound, the “Tumor Volume (mm3) (d30)” value ([3]; 786-O nude mice, 100 mg/kg) was 702.74 ± 37.66 mm3, the “Relative Tumor Proliferation Rate (T/C)” value [3, 10] was 36.89% and the “tumor growth inhibition rate” value [3, 10] was 64.36%. The “Relative Tumor Proliferation Rate (T/C)” value [3, 11] was 37.88%, the “tumor growth inhibition rate” value [3, 11] was 34.70% and the “tumor volume and relative tumor volume” value ([3]; 786-O, low, medium and high doses, P<0.05) was “significantly lower”. For the same compound, the “Relative Tumor Proliferation Rate (T/C)” value [3, 12] was 37.19%, the “tumor growth inhibition rate” value [3, 12] was 39.22% and the “mouse weight compared with the model group” value ([3]; mouse, in vivo) was “no significant changes”. For the same compound, the “Body Weight (g) (d1)” value ([3]; mouse, in vivo, 25 mg/kg) was 21.87 ± 0.89 g, the “Body Weight (g) (d30)” value ([3]; mouse, in vivo, 25 mg/kg) was 22.95 ± 0.88 g and the “Body Weight (g) (d1)” value ([3]; mouse, in vivo, 50 mg/kg) was 22.00 ± 0.94 g. The “Body Weight (g) (d30)” value ([3]; mouse, in vivo, 50 mg/kg) was 22.82 ± 0.64 g, the “Body Weight (g) (d1)” value ([3]; mouse, in vivo, 100 mg/kg) was 21.88 ± 0.54 g and the “Body Weight (g) (d30)” value ([3]; mouse, in vivo, 100 mg/kg) was 23.00 ± 0.67 g.
